From patent US9090659B2, “RHAMM binding peptides” (London Health Sciences Centre Research Inc., priority 2010, dated 2015)
Ends that are not written are not given here. Peptide text beside a SMILES is read from it.

System: ascites-derived human EOC cells
Test: Cell viability (alamarBlue) of ascites-derived human EOC cells
Format: cell-based
Settings: 7 and 0.7 uM, re-dosing everyday up to 6 days; p<0.05
Procedure: The ability of one RHAMM-binding peptide (SEQ ID NO: 1) to limit the proliferation of patient derived epithelial ovarian cancer tumors and the ability of another RHAMM-binding peptide (SEQ ID NO: 3) to reduce the viability of ascites-derived human EOC cells were examined. In these assays, epithelial ovarian cancer cells (derived from ascites of patients) were plated in a 96-well plate at density 5,000 cells/well and allowed to grow for 24 hours at 37° C. and 5% CO2. Peptides (1 uM and 10 uM) were added to cells on day one and proliferation was measured for 6 days. 1/10th volume of Alamar Blue reagent was added directly to cells in culture medium everyday for six days. Fluorescence was read at 570/590 nm. Data were obtained from mean of two experiments. Cells treated with just DMSO (dimethylsulfoxide) and “no-cell” control samples were included in the experiment.
Primary cells from patient sample EOC were seeded to a 24-well culture dish and 24 hours later treatment was initiated with the RHAMM-binding peptide SEQ ID NO: 3 (7 and 0.7 uM concentrations) or DMSO vehicle control. Re-dosing occurred everyday for up to 6 days and cell viability was assessed by fluorometry using alamarBlue™ reagent (measured in fluorescence units, FU).

Compound	viability of EOC cells (fluorescence units)
SEQ ID NO: 3: synthetic αIIIc tubulin CTT peptide containing EEXEEZ motif (SVEAEAEEGEEY)	reduced viability

Molecular target: T1, RHAMM (Mus musculus, UniProt Q00547)
T1 construct: Profinity eXact tag; made in house; host or cells: E. coli BL21 (D3), plasmid pPAL7-RHAMM
T1 sequence (Q00547 706-766): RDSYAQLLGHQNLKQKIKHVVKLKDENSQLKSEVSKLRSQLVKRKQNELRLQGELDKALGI
Test: SPR binding assay for kinetic constants, RHAMM flowed over immobilized peptides (GWC SPRimager II)
Settings: peptide immobilized on sensor plate; RHAMM 500, 750, 1000 nM; 1:1 Langmuir binding model
Procedure: After peptide screening, […] system was used to determine binding kinetic constants. Thiol-containing peptides at 1 nM concentration in milliQ water were immobilized on a maleimide-functionalized gold-plated chip for 3 hours. Excess peptides were removed by washing with milliQ water. For binding studies, a series of concentrations (500 nM, 750 nM, and 1000 nM) of RHAMM were injected over the immobilized peptides. After a 15 min dissociation phase, the sensor chip surface was regenerated for the next peptide sample injection, via treatment with two 10 min pulse injections of regenerating buffer (2 M NaCl in HBS-EP, pH 7.4) at […]. Baseline returned to the initial value after the regeneration step, confirming the removal of all bound analytes. Data were analyzed and the corresponding dissociation constants (KD) were obtained via non-linear regression fitting to a Langmuir binding model. In all experiments, reference subtraction was performed using data obtained from reference plate (no peptide) and peptide functionalized plate. The binding of the six peptides deduced in the previous section to RHAMM was quantified. Truncation studies indicate that the CTTs (i.e. the last 12 carboxy-terminal residues of S-peptides), were sufficient to induce MAP-directed microtubule assembly, thus placing a label spaced by a linker moiety on the amino terminus of CTT should not affect the peptide-protein interaction. Peptides were immobilized on the sensor plate and RHAMM was flowed over derivatized surface at different concentrations at a constant flow rate of 100 μL/min. FIG. 4 A depicts the resulting sensograms. Again, each sensograms has been corrected by subtracting each curve from a reference sensorgram (data acquired from the sensorgram without immobilized peptide) in order to account for refractive index differences between running buffer and sample solutions. Experimental sensograms were fitted with curves resulting from a kinetic model for a 1:1 Langmuir binding model. […]

Compound	Kd
C[C@H](NC(=O)[C@H](CCC(=O)O)NC(=O)[C@H](CCC(=O)O)NC(=O)[C@H](CCC(=O)O)NC(=O)[C@H](C)NC(=O)[C@H](CCC(=O)O)NC(=O)[C@H](CCC(=O)O)NC(=O)CNC(=O)[C@H](Cc1ccccc1)NC(=O)[C@H](CC(=O)O)NC(=O)[C@H](CCC(=O)O)NC(=O)[C@@H](N)CCC(=O)O)C(N)=O [SEQ ID NO: 9] (H-EEDFGEEAEEEA-NH2)	32 nM
CSCC[C@H](NC(=O)[C@H](CC(N)=O)NC(=O)[C@H](CO)NC(=O)[C@H](CCC(=O)O)NC(=O)[C@H](C)NC(=O)[C@H](CCC(=O)O)NC(=O)[C@@H](NC(=O)[C@@H](N)Cc1ccccc1)[C@@H](C)O)C(=O)N[C@@H](CC(N)=O)C(=O)N[C@@H](CC(=O)O)C(=O)N[C@@H](CC(C)C)C(=O)N[C@H](C(N)=O)C(C)C [SEQ ID NO: 14] (H-FTEAESNMNDLV-NH2)	30 nM
CC(C)[C@H](N)C(=O)N[C@@H](CCC(=O)O)C(=O)NCC(=O)N[C@@H](CCC(=O)O)C(=O)NCC(=O)N[C@@H](CCC(=O)O)C(=O)N[C@@H](CCC(=O)O)C(=O)N[C@@H](CCC(=O)O)C(=O)NCC(=O)N[C@@H](CCC(=O)O)C(=O)N[C@@H](CCC(=O)O)C(=O)N[C@@H](Cc1ccc(O)cc1)C(N)=O [SEQ ID NO: 1] (H-VEGEGEEEGEEY-NH2)	24 nM

Molecular target: T2, RHAMM (Mus musculus, UniProt Q00547)
T2 construct: Profinity eXact tag; made in house; host or cells: E. coli BL21 (D3), plasmid pPAL7-RHAMM
Test: KD (nM)
Settings: not given
From the text: Table printed on a drawing sheet, FIG. 2 B
Head of the field: KD (nM)
The patent's description of the figure: FIG. 2 A illustrate the general structure of (a) unmodified tubulin-derived peptides, (b) tubulin-derived peptides conjugated to N-acetyl cysteine, and (c) tubulin-derived peptides conjugated to fluorescein isothiocyanate.
FIG. 2 B is a table of 17 synthesized tubulin-derived peptides, including peptides derivatized with fluorescein or N-acetyl cysteine, tubulin fragment type, calculated and observed mass spectrometry m/z values (m is representative of molecular or atomic mass and z is representative of the number of elementary charges carried by the ion), percent purity and binding constant Kd. FIG. 2 B discloses SEQ ID NOs: 1, 24-25, 2-3, 26-27, 4-9, 28-29, 10-11, 30-31, 12, 32-33, 13-14, 34-35 and 15-17, respectively, in order of appearance.
FIG. 2 B is a table which describes all 17 peptides prepared for this study. Sequences of 17 synthesized peptides encompass the CTTs of different tubulin subtypes as well as sequences directly flanking α1a- (SEQ ID NOs: 6, 7 and 8) and βIIIa-CTT (SEQ ID NOs: 13 and 14). […]
First copying reader's note: The table is continued on the next sheet (printed: continued on page 4/20).
Where the first naming reader finds the target: patent_title: RHAMM binding peptides

Compound	Kd
CC(C)[C@H](NC(=O)[C@@H](N)CO)C(=O)N[C@@H](CCC(=O)O)C(=O)N[C@@H](C)C(=O)N[C@@H](CCC(=O)O)C(=O)N[C@@H](C)C(=O)N[C@@H](CCC(=O)O)C(=O)N[C@@H](CCC(=O)O)C(=O)NCC(=O)N[C@@H](CCC(=O)O)C(=O)N[C@@H](CCC(=O)O)C(=O)N[C@@H](Cc1ccc(O)cc1)C(N)=O [SEQ ID NO. 3 | 3a, Alpha IIIc CTT (439-450)] (H-SVEAEAEEGEEY-NH2; N-terminus assumed)	331 nM
C[C@H](NC(=O)[C@H](CO)NC(=O)[C@@H](N)CC(=O)O)C(=O)N[C@@H](CC(=O)O)C(=O)NCC(=O)N[C@@H](CCC(=O)O)C(=O)N[C@@H](CC(=O)O)C(=O)N[C@@H](CCC(=O)O)C(=O)NCC(=O)N[C@@H](CCC(=O)O)C(=O)N[C@@H](CCC(=O)O)C(=O)N[C@@H](Cc1ccc(O)cc1)C(N)=O [SEQ ID NO. 2 | 2, Alpha Ia CTT (438-449)] (H-DSADGEDEGEEY-NH2; N-terminus assumed)	< 1000 nM

Molecular target: T1, RHAMM
Test: SPR-based screening of tubulin-derived peptides against immobilized RHAMM (ProteON XPR36)
Format: binding
Settings: peptides 10 μM injected over immobilized RHAMM
Procedure: ProteON XPR36 system was used for the selection and ranking of different tubulin derived peptides against RHAMM. For immobilization of RHAMM, the ProteON GLC sensor chip surfaces were activated by amine coupling using 100 mM EDAC and 24 mM sulfo-NHS. RHAMM (30 μg/mL in sodium bicarbonate buffer, pH 9.7) was injected at a flow a rate of 30 μl/min. A buffer sample was injected on a different sensor plate for use as a reference. Ethanolamine HCl (1M, pH 8.5) was then injected to deactivate any remaining surface groups. Peptides (10 μM in PBS-T, 2% DMSO) were injected to a RHAMM functionalized surface at 50 μL/min for 3 minutes followed by a 10 minute dissociation (i.e. injection of PBS-T buffer) period. The surfaces were regenerated using two injections of 30 μL of 1M NaCl prior to the injection of the next peptide. In all experiments, reference subtraction was performed using data obtained from reference plate (No RHAMM) and RHAMM functionalized plate.
A SPR (surface plasmon resonance)-based screening method was utilized for rapid and accurate determination of potential peptide candidates that are able to recognize the HA-binding domain of RHAMM. Seventeen tubulin-derived peptides were screened, and the resulting sensograms were used to deduce peptides which show affinity to RHAMM. Prior to screening, the optimal condition for ligand immobilization, in this instance RHAMM, to the sensor plate was determined. The optimal pH for the immobilization buffer balances the electrostatic attraction of the protein to the sensor plate while minimizing protein deactivation. In this study the optimal pH for immobilization was determined to be the pH that yielded the highest ligand density. RHAMM was coupled to the sensor plate using sodium bicarbonate buffer of varying pH, at a flow rate of 30 μL/min and with fixed concentration of EDAC and sulfo-NHS. The RHAMM ligand density for each pH immobilization condition was determined from the average SPR response of six measurements and the maximum ligand immobilization occurred at pH 9.7 (FIG. 3 A). Ligand immobilization was slightly lower than pH 10.1 due in part to loss of net charge on RHAMM at its isoelectric point.
After immobilization of RHAMM on the SPR sensor chip, injection of a series of tubulin derived peptides was carried out. Association of the peptides with RHAMM proceeded for 3 minutes and the dissociation in analyte free buffer was carried out for 10 minutes. […] For each peptide injection, control sensograms (no immobilized RHAMM and buffer injection) were subtracted from the test sensograms, and the chip surface was regenerated prior to the next peptide injection in order to remove any remaining bound peptides.

Compound	affinity to RHAMM in SPR screening
SEQ ID NO: 11: synthetic βIV-CTT tubulin peptide containing EEXEEZ motif (GEFEEEAEEEVA-NH2)	enhanced affinity to RHAMM
SEQ ID NO: 10: synthesized tubulin-derived 12-residue peptide containing EEXEDZ motif (GEFEEEEGEDEA)	failed the initial screening
SEQ ID NO: 2: synthesized tubulin-derived 12-residue peptide containing DEXEEZ motif (DSADGEDEGEEY)	failed the initial screening
SEQ ID NO: 3: synthetic αIIIc tubulin CTT peptide containing EEXEEZ motif (SVEAEAEEGEEY)	enhanced affinity to RHAMM
SEQ ID NO: 12: synthesized tubulin-derived 12-residue peptide of FIG. 2B (EAFEDEEEEIDG)	enhanced affinity to RHAMM
SEQ ID NO: 4: synthesized tubulin-derived 12-residue peptide containing DEXEEZ motif (IDSYEDEDEGEE)	failed the initial screening
